The target of data set [1] is T1, Carbonic anhydrase 2 (Homo sapiens, UniProt P00918).
Description: Tested for ability to compete with dansylamide for binding to human erythrocyte carbonic-anhydrase-II (HCA-II)
In data set [2] the target is T1, Carbonic anhydrase 2. The source holds these as a separate data set.
Description: Tested for ability to inhibit human erythrocyte carbonic-anhydrase-II- (HCA II) catalyzed carbon dioxide hydration
A further data set in a line: physchem. The note with it: pH 5.2 buffer, pH 5.2, Solubility.
Data set [3] in a line: The pKa value in 30% EtOH/H2O. Format: physicochemical.
Data set [4] is filed under the species Oryctolagus cuniculus.
Description: Change in intraocular pressure (IOP) was measured in the normotensive pigmented rabbit in presence of MK-927
For data set [5], the species on record is Oryctolagus cuniculus. This is another data set of the same source.
Description: Change in intraocular pressure (IOP) was measured in the normotensive pigmented rabbit
The species entered for data set [6] is Oryctolagus cuniculus. This is another data set of the same source.
Description: Reduction of the elevated intraocular pressure (IOP) in alpha-chymotrypsin treated albino rabbit
The conditions of data set [7]: buffer, pH 5.2.
Description: Solubility in pH 5.2 buffer

Converted amounts (≈) assume the structure as drawn.

Description for physchem: Solubility in pH 5.2 buffer

For orientation: Ki means the equilibrium dissociation constant of an inhibitor or competing ligand from its target. As a reminder, the IC50 is the concentration needed to halve the response being measured. Low readings indicate greater potency, high ones weaker potency. With `COCCOCCN(CCOC)CCC1C(=O)Nc2cc(S(N)(=O)=O)sc2S1(=O)=O` (configuration not stated), the affinity at Carbonic anhydrase 2 [1], expressed as Ki, was 4.14 nM. The same compound gave a concentration for half-maximal inhibition (IC50) against Carbonic anhydrase 2 [2] of 5.15 nM.
On the same counts, the results for `NS(=O)(=O)c1cc2c(s1)SCC(=O)N2` are 24 nM and 12.8 nM.
A word on the solubility: it is how much of the substance goes into solution per volume. The pKa is the pH at which an ionisable group is half protonated. For `NS(=O)(=O)c1cc2c(s1)S(=O)(=O)CCN2`, in “physchem”, the concentration in solution (solubility) came to 190 µg/mL (≈ 0.708 mM). The pKa in data set [3] was 8.8. Also, the inhibition constant Ki on Carbonic anhydrase 2 [1] was 3.36 nM. Further, the midpoint of inhibition at Carbonic anhydrase 2 [2], the IC50, lay at 2.46 nM.
On the same counts, the results for `NS(=O)(=O)c1cc2c(s1)S(=O)(=O)CC(=O)N2` are 600 µg/mL (≈ 2.13 mM), 7.43, 2.9 nM and 3.7 nM.
As for `NS(=O)(=O)c1cc2c(s1)SC(CC(=O)O)C(=O)N2` (configuration not stated), in the data set “physchem”, the solubility was found to be 2400 µg/mL (≈ 7.78 mM). For the same compound, the pKa in data set [3] was found to be 4.3. The Ki on Carbonic anhydrase 2 [1] was 47.5 nM.
In the data set “physchem”, `CC(C)CNC(=O)CC1Sc2sc(S(N)(=O)=O)cc2NC1=O` (configuration not stated) registered a solubility of 30 µg/mL (≈ 0.0825 mM). The pKa in data set [3] was determined as 3.65.
`COCCOCCN(CCOC)CCC1CNc2cc(S(N)(=O)=O)sc2S1(=O)=O` (configuration not stated): in the data set “physchem”, the solubility worked out at 11800 µg/mL (≈ 25 mM). Further, the “Delta IOP” value in the data set filed under Oryctolagus cuniculus [4] is -5.3 mmHg; in the data set filed under Oryctolagus cuniculus [5], -1.6 mmHg; in the data set filed under Oryctolagus cuniculus [6] it was 6 mmHg. In data set [3], this compound registered a pKa of 6.55. The compound also returned a Ki on Carbonic anhydrase 2 [1] of 4.14 nM. For the same compound, the midpoint of inhibition on Carbonic anhydrase 2 [2], the IC50, lay at 1.45 nM.
Consider `NS(=O)(=O)c1cc2c(s1)S(=O)(=O)C1(CC1)CN2`, for which the concentration in solution in the data set “physchem” (solubility) came to 520 µg/mL (≈ 1.77 mM). In data set [3], the pKa was 8.29. On Carbonic anhydrase 2 [1], this compound gave an inhibitory constant (Ki) of 10.9 nM. The same compound had an IC50 against Carbonic anhydrase 2 [2] of 2 nM.
On Carbonic anhydrase 2 [1], `COCCOCCN(CCOC)C(=O)CC1C(=O)Nc2cc(S(N)(=O)=O)sc2S1(=O)=O` (configuration not stated) displayed an inhibition constant Ki of 3.6 nM. On Carbonic anhydrase 2 [2], half-maximal inhibition (IC50) was put at 2.18 nM.
In the data set “physchem”, `COCCN(CCOC)CCC1CNc2cc(S(N)(=O)=O)sc2S1(=O)=O` (configuration not stated) registered a solubility above 6700 µg/mL. Moreover, the “Delta IOP” value in the data set listed under Oryctolagus cuniculus [4] is reported as -5.1 mmHg; in the data set filed under Oryctolagus cuniculus [5], -4.1 mmHg; in the data set listed under Oryctolagus cuniculus [6], 4 mmHg. In data set [3], the pKa was found to be 6.4. The Ki at Carbonic anhydrase 2 [1] was found to be 0.97 nM. Further, half-maximal inhibition against Carbonic anhydrase 2 [2] (IC50) was put at 2.14 nM.
In the case of `CC(C)CNCCC1CNc2cc(S(N)(=O)=O)sc2S1(=O)=O` (configuration not stated), the concentration in solution in “physchem” (solubility) came to 24000 µg/mL (≈ 65.3 mM). In addition, the “Delta IOP” value in the data set listed under Oryctolagus cuniculus [4] is given as -6.2 mmHg; in the data set listed under Oryctolagus cuniculus [5], -2.1 mmHg; in the data set listed under Oryctolagus cuniculus [6] it was -4.5 mmHg. In data set [3], this compound displayed a pKa of 8.18. For the same compound, affinity on Carbonic anhydrase 2 [1] was put at a Ki of 4.05 nM. Further, half-maximal inhibition at Carbonic anhydrase 2 [2] (IC50) required 2.9 nM.
The compound `NS(=O)(=O)c1cc2c(s1)S(=O)(=O)C(CCO)CN2` (configuration not stated) registered a solubility in the data set “physchem” of 4500 µg/mL (≈ 14.4 mM). The pKa in data set [3] turned out to be 8.45. At Carbonic anhydrase 2 [1], the affinity corresponds to a Ki of 1.19 nM. The same compound displayed an IC50 on Carbonic anhydrase 2 [2] of 1.9 nM.
In turn, `NS(=O)(=O)c1cc2c(s1)SC(CCO)CN2` (configuration not stated) came in with a solubility in the data set “physchem” of 640 µg/mL (≈ 2.28 mM). The pKa in data set [3] turned out to be 9.62.
For the compound `CC(C)CN[C@H]1CCS(=O)(=O)c2sc(S(N)(=O)=O)cc21` (stereo in doubt; form 1) [SEZOLAMIDE], the solubility in data set [7] was above 16 mg/mL.
Same read-out and setting: the result for `CC(C)CN[C@H]1CCS(=O)(=O)c2sc(S(N)(=O)=O)cc21` (stereo in doubt; form 2) [SEZOLAMIDE] reads 33 mg/mL (≈ 97.5 mM).
With `NS(=O)(=O)c1cc2c(s1)S(=O)(=O)C(CCN1CCOCC1)CN2` (configuration not stated), in “physchem”, the concentration in solution (solubility) came to 2100 µg/mL (≈ 5.5 mM). Moreover, the “Delta IOP” value in the data set listed under Oryctolagus cuniculus [4] is given as -4.4 mmHg; in the data set listed under Oryctolagus cuniculus [5], -2.8 mmHg; in the data set filed under Oryctolagus cuniculus [6], 5 mmHg. Moreover, the pKa in data set [3] was 3.23.

Values taken from ChEMBL document CHEMBL1127476, “3-substituted thieno[2,3-b][1,4]thiazine-6-sulfonamides. A novel class of topically active carbonic anhydrase inhibitors” (J Med Chem, 1994).
